Measured values taken from patent US9290457B2, “Substituted dihydropyrimidinones and their use as inhibitors of neutrophil elastase activity” (Boehringer Ingelheim International GmbH, priority 2014, dated 2016).
≈ marks a conversion by molar mass, not a printed value.

Assays:
[1] = molecular target: T1, neutrophil elastase (Homo sapiens (Human), UniProt P08246); assay: Human Neutrophil Elastase Assay; format: biochemical; conditions: substrate MeOSuc-Ala-Ala-Pro-Val-AMC
Target sequence in this assay (P08246 30-247): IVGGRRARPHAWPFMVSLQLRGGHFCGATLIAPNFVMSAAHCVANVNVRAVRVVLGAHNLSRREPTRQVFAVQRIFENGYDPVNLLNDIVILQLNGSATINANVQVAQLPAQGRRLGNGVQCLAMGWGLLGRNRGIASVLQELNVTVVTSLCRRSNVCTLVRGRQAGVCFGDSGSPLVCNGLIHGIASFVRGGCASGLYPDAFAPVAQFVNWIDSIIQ

[2] = molecular target: T1, neutrophil elastase; assay: Neutrophil elastase inhibitory activity in human plasma; format: biochemical; conditions: zymosan-stimulated human plasma, substrate MeOSuc-Ala-Ala-Pro-Val-AMC
Description: Assay for the Determination of Neutrophil Elastase Inhibitory Activity in Human Plasma
Citrated blood from human healthy donors is mixed with zymosan suspension and incubated at room temperature. This leads to the stimulation of neutrophils and the release of neutrophil elastase into the plasma. The stimulated blood is centrifuged to generate the neutrophil elastase enriched plasma.
Preparation of Zymosan Working Solution:
• A single 45 ml blood sample is taken into a 50 ml tube containing citrate (3.13%, 5 mL) and the tube is gently inverted 4 times. • Immediately after blood sampling, zymosan working solution (5 mL) is added. • After the addition of zymosan working solution, the tubes are capped, mixed gently and incubated at 22° C. for 15 min on a shaker at 20 rpm. • Make 10 ml aliquots after the incubation time. • Centrifuge the 15 ml tubes at 800 g for 15 min at 4° C. in a Jouan centrifuge. • Harvest the plasma and make 1-5 ml aliquots. • Store the plasma at −80° C.
Various concentrations of the neutrophil elastase inhibitor are incubated with plasma. Subsequently, the enzyme activity is measured using the fluorogenic substrate MeOSuc-Ala-Ala-Pro-Val-AMC (Bachem Cat. No. I-1270, substrate concentration: 250 μM, pH 7.5, 25 mM TRIS buffer, 250 mM NaCl) in analogous fashion as described for the human neutrophil assay. A dose response curve is generated to calculate the EC50 of the inhibitor. The analysis of the data is performed by the calculation of the percentage of fluorescence in the presence of the test compound compared to the fluorescence of the vehicle control after subtracting the background fluorescence: An inhibitor of the neutrophil elastase enzyme will give values between 100% control (no inhibition) and 0% control (complete inhibition).
Target sequence in this assay (P08246 30-267): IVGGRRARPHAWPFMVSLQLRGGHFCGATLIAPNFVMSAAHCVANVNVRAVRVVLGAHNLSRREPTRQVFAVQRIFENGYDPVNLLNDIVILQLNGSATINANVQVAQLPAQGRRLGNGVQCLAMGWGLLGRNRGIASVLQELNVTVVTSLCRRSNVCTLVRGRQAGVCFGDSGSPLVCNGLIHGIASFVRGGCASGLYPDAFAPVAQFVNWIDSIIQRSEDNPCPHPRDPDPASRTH

[3] = Metabolic stability with human liver microsomes; format: in vitro ADME; conditions: pH 7.6; pooled human liver microsomes, 1 μM compound, 37° C.; read-out: t1/2 INVITRO
Description: Assay for the Determination of Metabolic Stability with Human Liver Microsomes
The metabolic degradation of the test compound is assayed at 37° C. with pooled human liver microsomes. The final incubation volume of 100 μl per time point contains TRIS buffer pH 7.6 (0.1 M), magnesium chloride (5 mM), microsomal protein (1 mg/ml) and the test compound at a final concentration of 1 μM. Following a short preincubation period at 37° C., the reactions are initiated by addition of beta-nicotinamide adenine dinucleotide phosphate, reduced form (NADPH, 1 mM) and terminated by transferring an aliquot into acetonitrile after different time points. Additionally, the NADPH-independent degradation is monitored in incubations without NADPH, terminated at the last time point. The [%] remaining test compound after NADPH independent incubation is reflected by the parameter c(control) (metabolic stability). The quenched incubations are pelleted by centrifugation (10,000 g, 5 min) An aliquot of the supernatant is assayed by LC-MS/MS for the amount of parent compound.
The half-life (t1/2 INVITRO) is determined by the slope of the semilogarithmic plot of the concentration-time profile. The intrinsic clearance (CL_[…]) is calculated by considering the amount of protein in the incubation: CL_[…][μl/min/mg protein]=(ln 2/(half-life[min]*protein content[mg/ml]))*1,000.
The half-life (t1/2 INVITRO) values of selected compounds in the metabolic stability assay human liver microsomes described above are listed in Table 3.

[4] = Drug transport across human Caco-2 cells; format: in vitro ADME; conditions: human, Caco-2, pH 7.2, 37° C.
Excerpt: Assay for Determination of Drug Transport Across Human Caco-2 Cells
The assay provides information on the potential of a compound to pass the cell membrane, on the extent of oral absorption as well as on whether the compound is actively transported by uptake and/or efflux transporters. For the measurement of permeability across polarized, confluent human cancer colon carcinoma cells 2 (Caco-2) cell monolayers grown on permeable filter supports are used as the in vitro absorption model.
Apparent permeability coefficients (PE) of the compounds across the Caco-2 monolayers are measured (pH 7.2, 37° C.) in apical-to-basal (AB) (absorptive) and basal-to-apical (BA) (secretory) transport direction. AB permeability (PEAB) represents drug absorption from the intestine into the blood and BA permeability (PEBA) drug secretion from the blood back into the intestine via both passive permeability as well as active transport mechanisms mediated by efflux and uptake transporters that are expressed on the Caco-2 cells. The compounds are assigned to permeability/absorption classes by comparison of the AB permeabilities with the AB permeabilities of reference compounds with known in vitro permeability and oral absorption in the human. Identical or similar permeabilities in both transport directions indicate passive permeation, vectorial permeability points to additional active transport mechanisms. […] Active transport is concentration-dependently saturable.
Caco-2 cells (1-2*10^5 cells/cm^2 area) are seeded on filter inserts (Costar transwell polycarbonate or PET filters, 0.4 μm pore size) and cultured (DMEM) for 10 to 25 days. Compounds are dissolved in appropriate solvent (like DMSO, 1-20 mM stock solutions). Stock solutions are diluted with HTP-4 buffer (128.13 mM NaCl, 5.36 mM KCl, 1 mM MgSO4, 1.8 mM CaCl2, 4.17 mM NaHCO3, 1.19 mM Na2HPO4x7H2O, 0.41 mM NaH2PO4xH2O, 15 mM HEPES, 20 mM glucose, pH 7.2) to prepare the transport solutions (typically 10 μM compound, final DMSO<=0.5%). The transport solution (TL) is applied to the apical or basolateral donor side for measuring A-B or B-A permeability (3 filter replicates), respectively. The receiver side contains HTP-4 buffer supplemented with 2% BSA. Samples are collected at the start and end of experiment from the donor and at various time intervals for up to 2 hours also from the receiver side for concentration measurement by LC-MS/MS or scintillation counting. Sampled receiver volumes are replaced with fresh receiver solution.
The apparent permeability coefficients (PEAB and PEBA) of selected compounds in the Caco-2 drug transport assay described above are listed in Table 5.

[5] = Aqueous solubility; format: physicochemical; conditions: McIlvaine buffer with 2.5% DMSO, aqueous buffer, kinetic from dmso stock, McIlvaine buffer pH 6.8, 2.5% DMSO
Description: Assay for Determination of Aqueous Solubility
Starting from a 10 mM DMSO stock solution, aliquots are diluted with acetonitrile/water (1/1) and McIlvaine buffer pH 6.8, respectively. After 24 h of shaking, the solutions or suspensions are filtered and analyzed by LC-UV. The amount dissolved in buffer is compared to the amount dissolved in the acetonitrile/water (1/1) solution. Solubility is measured from 0.001 to 0.125 mg/ml at a DMSO concentration of 2.5%. If more than 90% of the compound is dissolved in buffer, the value is marked with “>”.

CC(=O)C1=C(C)N(c2cccc(C(F)(F)F)c2)C(=O)N(C)C1c1ccc(C#N)cc1-c1nnc(C)o1 (stereo not drawn) [Example 8, 4-[5-Acetyl-3,6-dimethyl-2-oxo-1-(3-trifluoromethyl-phenyl)-1,2,3,4-tetrahydro-pyrimidin-4-yl]-3-(5-methyl-[1,3,4]oxadiazol-2-yl)-benzonitrile]
IC50 [1]: < 1 nM | EC50 [2]: 6 nM | half-life at 1 μM [3]: > 2.17 h | Papp A→B at 10 μM ([4]; apical-to-basal, read-out: PEAB): 770 nm/s | Papp B→A at 10 μM ([4]; basal-to-apical, read-out: PEBA): 630 nm/s | solubility at 24 h [5]: 0.03 mg/mL (≈ 60.5 µM)
